Experimental data as given in patent US20050203061A1, “Prodrug, medicinal utilization thereof and process for producing the same” (priority 2002, published 2005).
pIC50: −log10 of the molar value. Blank lines part the entries; values can stand above or below the compound they belong to.

How the values were obtained:
[1] = tested on: airway pressure of guinea pig sensitized with ovalbumin; test: Antigen (ovalbumin) induced airway contraction, immediate type asthmatic model, Konzett and Rossler method; assay type: in vivo; conditions: for increase ratio of the airway pressure / increase in the airway pressure / inhibition compared to the control group: 10 min; for inhibition of the immediate type asthmatic reaction (airway contraction): inhalation administration, guinea pigs
Procedure: In order to examine the bronchodilation effect of the glucuronides of salbutamol and isoprenaline of β2-agonists, an asthmatic model of a guinea pig sensitized with ovalumin was used. The test was conducted in accordance with the method of Konzett and Rossler (Arch. Exp. Pathol. Pharmakol., 195, 71-75, 1940).
On day 1 and day 8 after the initiation of sensitization, 500 μg/0.5 mL of ovalbumin was intramuscularly administered to both legs of a guinea pig and 1.5×10^5 cells/mL/animal of pertussis vaccine was intraperitoneally administered to effect active sensitization. On day 15 after the initiation of sensitization, 10 and 100 μg/site of ovalbumin were intradermally administered to the back of the guinea pig, respectively, to check the state of sensitization. Only the animals which were found positive by the sensitization check 6 hours after the intradermal sensitization were used in the experiment.
As the test substance, a drug solution was atomized by reducing the atomizing amount of an ultrasonic nebulizer to generate an aerosol, and the aerosol was then led into an exposure chamber (M.I.P.S. Co.), sucked at a rate of 3 L/min with the use of an air pump (SPP-3GA, Techno Takatsuki Co.) and administered to the guinea pig for 10 minutes by inhalation 40 minutes before the challenge of ovalbumin.
On day 10 to 23 after the initiation of sensitization, the animals were anesthetized with sodium pentobarbital (50 mg/kg, i.p.), and cannulation was conducted into the trachea. Through the tracheal cannula the animals were connected to an artificial respirator and the change in the ventilation pressure under artificial respiration (a ventilation amount of 10 mL/kg, a ventilation frequency of 50 times/min) was recorded as the airway pressure through a differential pressure transducer (Validyne, Gould Electronics) connected to the tracheal cannula on a recorder (WT-645G, Nihon Koden Co., Ltd.). The airway pressure was measured up to 10 minutes after the administration of ovalbumin. Then, cannulation was conducted into the right and left common carotid veins. From the left cannulation, gallamine (10 mg/mL) in a volume of 1 mL/kg was intravenously administered ([…]) to confirm the disappearance of spontaneous respiration. Thereafter, ovalbumin was intravenously administered to induce an antigen-antibody reaction. The measuring points of the airway pressure were set at a time before induction, and at 1, 3, 5, 7, and 10 minutes after induction. The ratio of the increase in the airway pressure is represented by the percentage of the values obtained by subtracting the observed value before induction from the observed value at each measuring time after induction based on the maximum occlusion at each measuring time.
As the test substances, salbutamol glucuronide and isoprenaline glucuronide were used. The salbutamol glucuronide is a white powder and the isoprenaline glucuronide is a brown crystal and both were stored at −80° C. under protection from light. As the control substances for comparison, each of sulbutamol chloride (hereinafter referred to as sulbutamol) and isoprenaline chloride (hereinafter referred to as isoprenaline) was used. The salbutamol and the isoprenaline are white powders and were stored at room temperature under protection from light. The test substances and the control substances for comparison were weighed in a necessary amount and dissolved in physiological saline (products of Otsuka Pharmaceutical Factory, Inc., Lot Nos. 1D78 and 1E84) to effect the preparation before using. The concentrations of the test substances and the control substances for comparison in solutions were rendered equivalent amounts by molar concentration. All solutions were nearly stable at room temperature for 24 hours.
The obtained experimental results were shown by mean values and standard deviations with airway pressure. As to the test of significance, the Student's t test without any correspondence was conducted when two groups were compared. […]

[2] = tested on: airway pressure of guinea pig sensitized with ovalbumin; test: as above; assay type: in vivo; conditions: for inhibition compared to the control group: 10 min
[3] = tested on: blood pressure and heart rate; test: Blood pressure and heart rate after generalized inhalation exposure; assay type: in vivo, Crj:CD(SD) rats; conditions: inhalation 10 min; for increase of the heart rate: after five minutes
Procedure: The test was conducted by using Crj:CD(SD) rats with each group of 6 rats.
Surgery was carried out under the anesthesia of a mixed gas of oxygen, nitrous oxide and isoflurane, and one end of a polyethylene tube (PE50, Becton Dickinson) filled with physiological saline containing heparin (100 U/mL) was inserted into a common carotid artery and indwelled, and the other end was passed through the neighborhood of the neck of the back of the animal and connected to a cannula (Instec Co.) installed at the upper portion of an exposure chamber. This cannula was connected to a pressure transducer (P23XL. Gould Electronics) through a polyethylene tube. Further, the periphery of the polyethylene tube from the back of the rat up to this cannula was passed through a metallic spring to prevent a damage to be caused by the rat.
The administration of the drugs was conducted by preparing an exposure chamber and subjecting the rat with a cannula for measuring blood pressure in the indwelled state in the common cartoid artery to the generaliged inhalation exposure. This method is typically used in the generalized inhalation exposure.
The signals from the pressure transducer (P23XL, Gould Electronics) were led to a pressure processor signal conditioner (Gould Electronics) and recorded on a thermal array recorder (RS3400, Gould Electronics). The blood pressure and the heart rate were continuously recorded from before the initiation of administration to 20 minutes after the completion of administration. The administration of the drugs was initiated when not less than one hour after waking passed and the measurement parameters were stabilized.
Test substances were prepared in the same manner as in Example 1.
The representative values of each group were shown by mean values [[…] (S.E.)]. With the mean values of each group, the test of significance was conducted by the Tukey's multiple test. Further, the significant standard was regarded as 5%.

[4] = tested on: tracheal smooth muscle sample of a pig; test: In vitro inhibition of smooth muscle contraction induced with high concentration of KCl or carbachol; assay type: cell-based
Procedure: (§1) The smooth muscle contraction induced in the tracheal smooth muscle sample of a pig with a high concentration of KCl or carbachol is inhibited with an IC50 of about 5 μM. […] In mice, rats, guinea pigs, dogs, and monkeys, as the result of blood analysis after the administration, not less than 99% of the compound was the glucuronic conjugate in any of the animal species.

[5] = Blood analysis after oral administration (glucuronidation); assay type: in vivo, and monkeys; conditions: mice, rats, guinea pigs, dogs, monkeys (any species)
Procedure: as §1

[6] = inhalation 0.072%, after three minutes
[7] = inhalation 0.1%, three minutes after antigen induction
[8] = 1 mg/L, during 30 minutes of measurement
[9] = inhalation 0.157%, after three minutes
[10] = 5 mg/L, during 30 minutes of measurement

Structure (SMILES): CC(C)(C)NCC(O)c1ccc(O)c(CO[C@@H]2OC(C(=O)O)[C@@H](O)C(O)C2O)c1 (stereo partly drawn) [salbutamol glucuronide, 3-O-(β-D-Glucuronyl)-salbutamol]
- increase ratio of the airway pressure [1, 6]: about 20%
- inhibition of the immediate type asthmatic reaction (airway contraction) [1]: significantly inhibit
- inhibition compared to the control group [2, 6]: about 56%
- effect on blood pressure and heart rate ([3]; 7.2 mg/L): no effect was observed at all

- pIC50 [4]: ~5.30
- portion of the compound present as glucuronic conjugate in blood [5]: not less than 99%
Structure (SMILES): CCC1Cc2c(O)cc(O)cc2Sc2ccccc21 (stereo not shown) [11-Ethyl-7,9-dihydroxy-10,11-dihydrobenzo[b,f]thiepin]
- airway contraction inhibition ([2]; oral administration, 10 mg/kg): showed the airway contraction inhibition

Structure (SMILES): CC(C)NCC(O)c1ccc(O)c(O)c1 (stereo not shown) [isoprenaline]
- increase in the airway pressure [1, 7]: about 12%
- inhibition compared to the control group [2, 7]: about 73%
- increase of the heart rate ([3]; 1 mg/L): about 49%
- maximum decrease of the blood pressure [3, 8]: 28%
- maximum increase of the heart rate [3, 8]: 50%
- decrease of the blood pressure vs before the treatment ([3]; 1 mg/L, five minutes after completion of inhalation): about 27%
- blood pressure ([3]; isoprenaline 1 mg/L, five minutes after completion of inhalation): 72 mmHg

Structure (SMILES): CC(C)NCC(O)c1ccc(O[C@@H]2OC(C(=O)O)[C@@H](O)C(O)C2O)c(O)c1 (stereo partly drawn) [isoprenaline glucuronide, 4-O-(β-D-Glucuronyl)-isoprenaline]
- increase ratio of the airway pressure [1, 9]: about 10%
- inhibition compared to the control group [1, 9]: about 77%
- inhibition of the immediate type asthmatic reaction (airway contraction) [1]: significantly inhibit
- effect on blood pressure and heart rate ([3]; 1.57 mg/L): no effect was recognized at all

Structure (SMILES): CC(C)(C)NCC(O)c1ccc(O)c(CO)c1 (stereo not shown) [salbutamol]
- increase in the airway pressure ([1]; inhalation 0.05%, 40 min before challenge, three minutes after antigen induction): about 3%
- inhibition compared to the control group ([1]; inhalation 0.05%, three minutes after antigen induction): about 92%
- increase of the heart rate ([3]; 5 mg/L): about 36%
- maximum blood pressure decrease ratio [3, 10]: 27%
- maximum heart rate increase ratio [3, 10]: 39%
- decrease of the blood pressure vs before inhalation (pre) ([3]; 5 mg/L, five minutes after completion of inhalation): about 26%
- blood pressure ([3]; salbutamol 5 mg/L, five minutes after completion of inhalation): 75 mmHg
